In ChEMBL document CHEMBL1123421, “Interaction of monoamine oxidase B with analogues of 1-methyl-4-phenyl-1,2,3,6-tetrahydropyridine derived from prodine-type analgesics” (J Med Chem, 1986):

Assays:
Homo sapiens [1] = organism: Homo sapiens; experiment: Compound was tested for inactivation of monoclonal antibody complex (MAO B - MAO B 1C2) from human autopsy liver
Homo sapiens [2] = organism: Homo sapiens; experiment: Compound was tested for inhibition of monoclonal antibody complex (MAO B - MAO B 1C2) from human autopsy liver expressed as specific activity
Homo sapiens [3] = organism: Homo sapiens; experiment: Compound was tested for inactivation of monoclonal antibody complex Monoamine oxidase B from human autopsy liver

Structure (SMILES)	k' (Homo sapiens [1])	Specific activity (nM min-1 mg-1) (Homo sapiens [2])	k' (Homo sapiens [3])
CC1=C(c2ccccc2)CCN(C)C1	0 min⁻¹	5.3	–
CC1CN(C)CC=C1c1ccccc1 (stereo not drawn)	0 min⁻¹	11.4	–
CN1CC=C(c2ccccc2)CC1	0.0264 min⁻¹	85.2	–
C1=C(c2ccccc2)CCN(CCc2ccccc2)C1	–	0	0 min⁻¹
